Test results: patent US20100172854A1, “ANTIBACTERIAL FORMULATIONS” (priority 2007, published 2010)
≈ marks a conversion by molar mass, not a printed value.

Experiments:
Format in all cases: cell-based
[1] = system: Prevotella nigrescens ATCC 33563; assay: MIC assay; details: ATCC33563
Experimental: (§1) This is a standard international method for quantitatively assessing the antimicrobial activity of a compound in a liquid medium. The method used a sterile 96-well microtitre plate, capable of holding about 200 μl of liquid per well. The wells contained liquid culture medium and ranges of decreasing concentrations of the relevant test compound in doubling dilutions (e.g. 1000, 500, 250, 125 . . . μg/ml, etc. down to 0.49 μg/ml). The culture media were as described above.
(§2) The wells were inoculated with a liquid suspension of freshly grown micro-organism and incubated under the conditions described above. After incubation, the microtitre plate was examined visually (with the aid of a light box) for cloudiness in each well, which would indicate microbial growth. The MIC value was recorded as the lowest concentration of test compound required to inhibit microbial growth, i.e. the lowest concentration for which the liquid in the well remained clear.
(§3) The assays included both negative (culture medium with no micro-organisms) and positive (culture medium plus diluting solvent plus micro-organism) controls.

[2] = system: Clostridium difficile ATCC 7000057; assay: MIC assay; details: Clostridioides difficile, ATCC7000057
Experimental: as §1, §2, §3

[3] = system: Corynebacterium mucifaciens ATCC 700355; assay: MIC assay; details: Corynebacterium mucifaciens, ATCC700355
Experimental: as §1, §2, §3

[4] = system: Gardnerella vaginalis ATCC 14018; assay: MIC assay; details: ATCC14018
Experimental: as §1, §2, §3

[5] = system: Streptococcus pyogenes ATCC 12344; assay: MIC assay; details: ATCC12344; Streptococcus pyogenes ATCC 12344
Experimental: as §1, §2, §3

[6] = system: Clostridium sporogenes ATCC 3584; assay: MIC assay; details: ATCC3584
Experimental: as §1, §2, §3

[7] = system: Streptococcus sobrinus ATCC 33478; assay: MIC assay; details: ATCC33478
Experimental: as §1, §2, §3

[8] = system: Actinomyces naeslundii ATCC 12104; assay: MIC assay
Experimental: as §1, §2, §3

[9] = system: Bacillus cereus ATCC 11778; assay: MIC assay
Experimental: as §1, §2, §3

[10] = system: Listeria monocytogenes ATCC 15313; assay: MIC assay
Experimental: as §1, §2, §3

[11] = system: Enterococcus faecalis ATCC 29212; assay: MIC assay; details: Enterococcus faecalis, ATCC29212
Experimental: as §1, §2, §3

[12] = system: Staphylococcus aureus ATCC 12600; assay: MBC assay
Experimental: (§4) The staphylococci were cultured and maintained on Mueller-Hinton Medium (agar and broth) at pH 7.2; cultures were incubated aerobically at 37° C. for 19-20 hours.
(§5) This assay, normally carried out after an MIC assay, determines the minimum concentration of a compound that is lethal to the micro-organism being tested.
(§6) These samples were then individually sub-cultured on antibiotic-free agar medium, under the incubation conditions described above. Following incubation they were examined visually for microbial growth.

[13] = system: Staphylococcus simulans ATCC 27848; assay: MBC assay
Experimental: as §4, §5, §6

[14] = system: Staphylococcus auricularis ATCC 33753; assay: MBC assay
Experimental: as §4, §5, §6

[15] = system: Staphylococcus warneri ATCC 27836; assay: MBC assay
Experimental: as §4, §5, §6

[16] = system: Staphylococcus capitis ATCC 27840; assay: MBC assay
Experimental: as §4, §5, §6

[17] = system: Staphylococcus aureus ATCC 29213; assay: MBC assay; details: S. aureus ATCC 29213
Experimental: as §4, §5, §6

[18] = system: S. saprophyticus NCTC 7292; assay: MBC assay
Experimental: as §4, §5, §6

[19] = system: Staphylococcus cohnii ATCC 29974; assay: MBC assay
Experimental: as §4, §5, §6

[20] = system: Staphylococcus haemolyticus ATCC 29970; assay: MBC assay
Experimental: as §4, §5, §6

[21] = system: Staphylococcus xylosus ATCC 29971; assay: MBC assay
Experimental: as §4, §5, §6

[22] = system: S. epidermidis NCTC 11047; assay: MIC assay; details: Staphylococcus epidermidis, NCTC11047
Experimental: as §4, §1, §2, §3

S. aureus ATCC 25923 = assay: MIC assay; details: Staphylococcus aureus, ATCC25923
Experimental: as §4, §1, §2, §3

[23] = system: Staphylococcus warneri ATCC 27836; assay: MIC assay; details: ATCC27836
Experimental: as §4, §1, §2, §3

[24] = system: Staphylococcus capitis ATCC 27840; assay: MIC assay; details: ATCC27840
Experimental: as §4, §1, §2, §3

S. aureus NCTC 12981 = assay: MIC assay; details: Staphylococcus aureus, NCTC12981
Experimental: as §4, §1, §2, §3

S. aureus ATCC 12600-U = assay: MIC assay; details: Staphylococcus aureus, ATCC12600
Experimental: as §4, §1, §2, §3

S. aureus CPHL EMRSA 15 = assay: MIC assay; details: Staphylococcus aureus
Experimental: as §4, §1, §2, §3

[25] = system: Staphylococcus hominis ATCC 27844; assay: MIC assay; details: ATCC27844
Experimental: as §4, §1, §2, §3

[26] = system: Staphylococcus xylosus ATCC 29971; assay: MIC assay; details: ATCC29971
Experimental: as §4, §1, §2, §3

S. aureus CPHL EMRSA 16 = assay: MIC assay; details: Staphylococcus aureus
Experimental: as §4, §1, §2, §3

S. aureus CPHL VISA Mu50 = assay: MIC assay; details: Staphylococcus aureus, resistance phenotype Van (intermediate)
Experimental: as §4, §1, §2, §3

SMILES: Cc1cc(Cc2cc(C)cc(C(C)(C)C)c2O)c(O)c(C(C)(C)C)c1 [AO 2246, 2,2′-methylene-bis(4-methyl-6-tert-butylphenol)]
- MIC [1]: 7.8 µg/mL (≈ 22.9 µM)
- MIC [2]: 3.9 µg/mL (≈ 11.5 µM)
- MIC [3]: 1.95 µg/mL (≈ 5.73 µM)
- MIC [4]: 15.6 µg/mL (≈ 45.8 µM)
- MIC [5]: 0.98 µg/mL (≈ 2.88 µM)
- MIC [6]: 3.9 µg/mL (≈ 11.5 µM)
- MIC [7]: 15.6 µg/mL (≈ 45.8 µM)
- MIC [8]: 1.95 µg/mL (≈ 5.73 µM)
- MIC [9]: 1.95 µg/mL (≈ 5.73 µM)
- MIC [10]: 1.95 µg/mL (≈ 5.73 µM)
- MIC [11]: 1.95 µg/mL (≈ 5.73 µM)
- MIC/MBC Ratio [12]: 0.06
- MBC ([12]; ATCC12600): 15.6 µg/mL (≈ 45.8 µM)
- MIC/MBC Ratio [13]: 0.5
- MBC ([13]; ATCC27848): 31.2 µg/mL (≈ 91.8 µM)
- MIC/MBC Ratio [14]: 0.5
- MBC ([14]; ATCC33753): 3.9 µg/mL (≈ 11.5 µM)
- MIC/MBC Ratio [15]: <0.5
- MBC ([15]; ATCC27836): > 31.2 µg/mL
- MIC/MBC Ratio [16]: 0.25
- MBC ([16]; ATCC27840): 15.6 µg/mL (≈ 45.8 µM)
- MIC/MBC Ratio [17]: 0.5
- MBC ([17]; Staphylococcus aureus, ATCC29213): 7.8 µg/mL (≈ 22.9 µM)
- MIC/MBC Ratio [18]: 1
- MBC ([18]; Staphylococcus saprophyticus, NCTC7292): 3.9 µg/mL (≈ 11.5 µM)
- MIC/MBC Ratio [19]: 1
- MBC ([19]; ATCC29974): 3.9 µg/mL (≈ 11.5 µM)
- MIC/MBC Ratio [20]: 1
- MBC ([20]; ATCC29970): 3.9 µg/mL (≈ 11.5 µM)
- MIC/MBC Ratio [21]: 1
- MBC ([21]; ATCC29971): 3.9 µg/mL (≈ 11.5 µM)
- MIC [22]: 3.9 µg/mL (≈ 11.5 µM)
- MIC (S. aureus ATCC 25923): 7.8 µg/mL (≈ 22.9 µM)
- MIC [23]: 15.6 µg/mL (≈ 45.8 µM)
- MIC [24]: 3.9 µg/mL (≈ 11.5 µM)
- MIC (S. aureus NCTC 12981): 1.95 µg/mL (≈ 5.73 µM)
- MIC (S. aureus ATCC 12600-U): 0.98 µg/mL (≈ 2.88 µM)
- MIC (S. aureus CPHL EMRSA 15): 1.95 µg/mL (≈ 5.73 µM)
- MIC [25]: 7.8 µg/mL (≈ 22.9 µM)
- MIC [26]: 3.9 µg/mL (≈ 11.5 µM)
- MIC (S. aureus CPHL EMRSA 16): 1.95 µg/mL (≈ 5.73 µM)
- MIC (S. aureus CPHL VISA Mu50): 0.98 µg/mL (≈ 2.88 µM)
